Measured values taken from US8998396B2, “Treatment liquid for liquid jetting device, and cartridge containing the same” (Ricoh Company, Ltd., priority 2009, dated 2015).

Experiment: Surfactant solubility in the main solvent, judged visually
Format: physicochemical
Conditions: main solvent: water, glycerin and 1,3-butylene glycol
Text: The surfactant was solved into the main solvent and the solubility thereof was judged visually.
A: Solved completely (transparent and colorless)

Solubility in the main solvent (in words) | SMILES
solves in the main solvent | CCCCCCCCN1CCCC1=O [LP-100, N-Octyl-2-Pyrrolidone]
cannot solve in the main solvent | CCCCCCCCCCCCN1CCCC1=O [LP-300, N-Dodecyl-2-Pyrrolidone]
